This note sets out measurements from patent publication US10189777B2, “Benzenesulfonamido and related compounds for use as agonists of RORγ and the treatment of disease” (Lycera Corporation, priority 2014, dated 2019).

In experiment [1] the target is T1, HIS-tagged RORγ-LBD protein (Homo sapiens, UniProt P51449).
T1 construct: made in house; host or cells: SF9 cells, baculovirus expression system; the lysate was used
T1 sequence (P51449 269-508 limits assumed): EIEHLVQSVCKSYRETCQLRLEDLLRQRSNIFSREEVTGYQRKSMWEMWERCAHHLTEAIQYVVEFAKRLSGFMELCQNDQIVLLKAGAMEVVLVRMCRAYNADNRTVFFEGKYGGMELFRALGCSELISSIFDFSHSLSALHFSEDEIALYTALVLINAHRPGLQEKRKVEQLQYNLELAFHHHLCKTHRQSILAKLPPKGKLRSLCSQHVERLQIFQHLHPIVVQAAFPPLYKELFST
Nature of the experiment: RORγ-Ligand Binding Domain (LBD) TR-FRET Assay. The settings on record: for TR-FRET Assay Max Response: upper plateau of 4-parameter fit, signal in the absence of ursolic acid or test compound set as 100; for EC50: with 2 μM RORγ antagonist ursolic acid, biotinylated SRC1 LXXLL peptide, ratio 665 nm/615 nm. The format is biochemical. As for the experimental part:
(§1) Exemplary compounds from the above Examples were tested for ability to increase RORγ activity using (i) a RORγ-Ligand Binding Domain (LBD) TR-FRET Assay, and (ii) a Gal4-RORγ Luciferase Reporter Assay in HEK-293T Cells. Assay procedures and results are described below.
Part I—Procedures for RORγ-Ligand Binding Domain TR-FRET Assay
HIS-tagged RORγ-LBD protein was expressed in SF9 cells using a baculovirus expression system. The lysate was diluted in assay buffer (50 mM Tris pH 7.0, 50 mM KCl, 1 mM EDTA, 0.1 mM DTT, 0.01% BSA) to obtain RORγ-LBD final concentration of −3 nM in a 384-well assay plate (need to titrate for each batch of protein).
A stock of biotinylated-LXXLL peptide from coactivator SRC1 (Biotin-[…]) was prepared in assay buffer and added to each well (200 nM final concentration). A solution of Europium tagged anti-HIS antibody (0.6 nM final concentration) and APC-conjugated streptavidin (30 nM final concentration) were also added to each well. RORγ antagonist ursolic acid was also included at a final concentration of 2 μM. Compounds were diluted in DMSO and further diluted in assay buffer with a final DMSO concentration at 1%.
The final assay mixture was incubated overnight at 4° C. or 2 hours at room temperature, and the fluorescence signal was measured on an Envision plate reader: (Excitation filter=340 nm; APC emission=665 nm; Europium emission=615 nm; dichroic mirror=D400/D630; delay time=100 μs, integration time=200 μs). 50% Effective concentration (EC50) values for test compounds were calculated from the quotient of the fluorescence signal at 665 nm divided by the fluorescence signal at 615 nm. The quotient of the fluorescence signals in the absence of ursolic acid or test compound is set as 100. Max Response is defined as the upper plateau in the signal as determined by line-fit using a 4-parameter logistic model in PRISM (GraphPad).
(In general: In TR-FRET formats the signal depends on donor and acceptor labels being close together.)

A further experiment deals with T2, Gal4-RORγ-LBD (Homo sapiens, UniProt P51449).
T2 construct: expressed in transfected cells
T2 sequence (P51449 269-508 limits assumed): T1 sequence (P51449 269-508 limits assumed)
Nature of the experiment: Gal4-RORγ Luciferase Reporter Assay in HEK-293T Cells. It is filed as cell-based. As to conditions: for EC50: HEK-293 cells, with 2 μM ursolic acid, incubated overnight, luciferase readout; for Gal4-RORγ Assay Max Response: upper plateau of 4-parameter fit, luciferase signal in the absence of ursolic acid or test compound defined at 100. As for the experimental part:
as §1
Part II—Procedures for Gal4-RORγ Luciferase Reporter Assay in HEK-293T Cells
Transfection of HEK-293 Cells
In the following protocol, HEK-293 cells were transfected with a construct comprising the Gal4 DNA binding domain fused to the ligand binding domain of RORγ (Gal4-RORγ-LBD) in a pcDNA3.1neo plasmid, and also with a reporter construct comprising pGL4.31 Gal4-luciferase (Promega). Control cells were prepared similarly using empty pcDNA3.1neo and pGL4.31 vectors.
Trans-IT reagent (Mirus, 60 μL) at room temperature was added drop wise to OptiMEM (Invitrogen, 1.5 ml). This reagent mixture was mixed by inversion then incubated for 5 to 30 minutes at room temperature. It then was added to a solution of both expression vectors (5 μg each), mixed, and incubated at room temperature for about 20 minutes. HEK-293 cells were harvested from incubation flasks by removing the media, treating with TrypLE Express (Invitrogen), and incubating until the cells detached from the bottom of the flask (approximately 2-5 minutes). 10 Million cells were collected by centrifugation and re-suspended in 10 mL of Dulbecco's Modified Eagle Medium, High Glucose (DMEM, Invitrogen) containing 10% Fetal Bovine Serum and 100 IU each of penicillin and streptomycin. The re-suspended cells and the transfection mixture were added to a T75 flask, mixed and incubated overnight at 37° C. and 5% CO2.
The cells were harvested as described above, counted, and centrifuged to obtain the desired number of cells, then re-suspended in complete growth media at 0.75×10^6 cells/mL. The RORγ antagonist, ursolic acid, was added to the cells at a final concentration of 2 μM. Cells were plated at 20 μL of cell suspension/well (10,000-15,000 cells/well) in white tissue culture treated 384 well plates. Test compounds were dissolved at 10 mM in DMSO then diluted into complete growth medium to 5× the final intended test concentration. These drug stock solutions, 5 μL/well were added to the tissue culture plate. The final DMSO concentration was 0.2%. The plates were briefly centrifuged then incubated overnight at 37° C. and 5% CO2. To conduct the assay, the tissue culture plates were allowed to equilibrate to room temperature and One-Glo luciferase reagent (Promega, 25 μL/well) was added. The plates were briefly centrifuged then incubated at room temperature for 10 minutes. The luciferase intensity was read on an Envision plate reader (Perkin Elmer). RORγ activity was determined relative to controls and plotted as a function of test compound concentration using PRISM (GraphPad) to determine a 50% effective concentration (EC50). The luciferase signal in the absence of ursolic acid or test compound is defined at 100. The Max Response is the upper plateau in the signal as determined by line-fit using a 4-parameter logistic model in PRISM (GraphPad).
In general terms: A reporter such as luciferase makes a cellular process visible.

By EC50 is commonly meant the concentration at which the effect is half-maximal. For the molecule `CCN(c1cccc(OCCc2c(F)cccc2Cl)c1)S(=O)(=O)c1cccc(C(F)(F)F)c1`, in experiment [1], the “TR-FRET Assay Max Response” value was “*** (The symbol “***” indicates a value in the range of greater than 150 to 200)” and the EC50 was in the range of 0.5 to 5 µM. Moreover, at Gal4-RORγ-LBD, the EC50 was over 10 µM and the “Gal4-RORγ Assay Max Response” value is recorded as “** (The symbol “**” indicates a value in the range of greater than 90 to 150)”.
As to `CCN(c1cccc(NCc2ccccc2Cl)c1)S(=O)(=O)c1cccc(C(F)(F)F)c1`, in experiment [1], the “TR-FRET Assay Max Response” value is “**** (The symbol “****” indicates a value greater than 200)” and the EC50 is under 0.5 µM. Further, at Gal4-RORγ-LBD, the EC50 was 0.5 to 5 µM and the “Gal4-RORγ Assay Max Response” value was “** (The symbol “**” indicates a value in the range of greater than 90 to 150)”.
Regarding `CCN(c1cccc(OC2CCc3cccc(Cl)c32)c1)S(=O)(=O)c1cccc(C(F)(F)F)c1` (stereo not shown), in experiment [1], the “TR-FRET Assay Max Response” value is recorded as “*** (The symbol “***” indicates a value in the range of greater than 150 to 200)” and the EC50 was under 0.5 µM. At Gal4-RORγ-LBD, the concentration giving a half-maximal response (EC50) is 5 to 10 µM and the “Gal4-RORγ Assay Max Response” value is recorded as “*** (The symbol “***” indicates a value in the range of greater than 150 to 200)”.
On to `CCN(c1cccc(OCc2ccccc2Cl)c1)S(=O)(=O)c1cccc(C(F)(F)F)c1`, for which, in experiment [1], the “TR-FRET Assay Max Response” value is “**** (The symbol “****” indicates a value greater than 200)” and the EC50 is 0.5 to 5 µM. Moreover, on Gal4-RORγ-LBD, the EC50 was in the range of 0.5 to 5 µM and the “Gal4-RORγ Assay Max Response” value is recorded as “** (The symbol “**” indicates a value in the range of greater than 90 to 150)”.
